pIC50: −log10 of the molar value.
Columns and labels:
PC-3 = assay: cells; settings: Homo sapiens, PC-3, 48 h
Description: Cytotoxicity against human PC-3 cells assessed as reduction in cell viability after 48 hrs by MTT assay

B16-F10 = assay: cells; settings: Mus musculus, B16-F10, 48 h
Description: Cytotoxicity against mouse B16-F10 cells assessed as reduction in cell viability after 48 hrs by MTT assay

ECa-109 cell line = assay: cells; settings: Homo sapiens, ECa-109, 48 h
Description: Cytotoxicity against human EC-109 cells assessed as reduction in cell viability after 48 hrs by MTT assay

MGC-803 = assay: cells; settings: Homo sapiens, MGC-803, 48 h
Description: Cytotoxicity against human MGC-803 cells assessed as reduction in cell viability after 48 hrs by MTT assay

[1] = biological target: Cyclin-dependent kinase 2 (Homo sapiens) (UniProt P24941); assay: Inhibition of CDK2 (unknown origin) at 20 uM relative to control
[2] = biological target: Cyclin-dependent kinase 6 (Homo sapiens) (UniProt Q00534); assay: Inhibition of CDK6 (unknown origin) at 20 uM relative to control
[3] = biological target: Cyclin-dependent kinase 1 (Homo sapiens) (UniProt P06493); assay: Inhibition of CDK1 (unknown origin) at 20 uM relative to control
[4] = biological target: T1, Lysine-specific histone demethylase 1A (Homo sapiens, UniProt O60341); assay: biochemical
Description: Inhibition of recombinant human LSD1 (157 to 852 residues) expressed in Escherichia coli BL21 (DE) cells using H3K4me2 substrate incubated for 30 mins by amplex red assay

MAO-A = biological target: T2, MAO-A (Homo sapiens, UniProt P21397); assay: Inhibition of MAO-A (unknown origin) at 20 uM relative to control
T2 sequence (P21397 whole entry): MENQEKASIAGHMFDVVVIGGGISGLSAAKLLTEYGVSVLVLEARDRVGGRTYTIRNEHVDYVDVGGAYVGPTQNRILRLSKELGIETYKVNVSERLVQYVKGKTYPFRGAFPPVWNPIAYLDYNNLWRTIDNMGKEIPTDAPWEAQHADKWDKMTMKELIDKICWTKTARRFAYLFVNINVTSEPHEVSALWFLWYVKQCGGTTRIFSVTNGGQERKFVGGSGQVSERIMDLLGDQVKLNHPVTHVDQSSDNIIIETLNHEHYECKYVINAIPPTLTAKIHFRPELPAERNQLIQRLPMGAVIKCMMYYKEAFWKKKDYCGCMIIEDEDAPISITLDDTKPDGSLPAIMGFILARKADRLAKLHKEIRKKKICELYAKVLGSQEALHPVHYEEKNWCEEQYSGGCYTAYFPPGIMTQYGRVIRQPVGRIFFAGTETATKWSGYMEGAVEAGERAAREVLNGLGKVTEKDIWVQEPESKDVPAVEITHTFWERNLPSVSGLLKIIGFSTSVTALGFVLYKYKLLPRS

[5] = biological target: T1, Lysine-specific histone demethylase 1A; assay: Inhibition of LSD1 in human MGC803 assessed as reduction in H3K4me2 protein expression incubated for 24 hrs by Western blot analysis; settings: MGC-803, dose 10-40 µM
[6] = biological target: Tyrosine-protein kinase BTK (Homo sapiens) (UniProt Q06187); assay: Inhibition of BTK (unknown origin) at 20 uM relative to control
[7] = biological target: T1, Lysine-specific histone demethylase 1A
MAO-B = biological target: T3, MAO-B (Homo sapiens, UniProt P27338); assay: Inhibition of MAO-B (unknown origin) at 20 uM relative to control
T3 sequence (P27338 whole entry): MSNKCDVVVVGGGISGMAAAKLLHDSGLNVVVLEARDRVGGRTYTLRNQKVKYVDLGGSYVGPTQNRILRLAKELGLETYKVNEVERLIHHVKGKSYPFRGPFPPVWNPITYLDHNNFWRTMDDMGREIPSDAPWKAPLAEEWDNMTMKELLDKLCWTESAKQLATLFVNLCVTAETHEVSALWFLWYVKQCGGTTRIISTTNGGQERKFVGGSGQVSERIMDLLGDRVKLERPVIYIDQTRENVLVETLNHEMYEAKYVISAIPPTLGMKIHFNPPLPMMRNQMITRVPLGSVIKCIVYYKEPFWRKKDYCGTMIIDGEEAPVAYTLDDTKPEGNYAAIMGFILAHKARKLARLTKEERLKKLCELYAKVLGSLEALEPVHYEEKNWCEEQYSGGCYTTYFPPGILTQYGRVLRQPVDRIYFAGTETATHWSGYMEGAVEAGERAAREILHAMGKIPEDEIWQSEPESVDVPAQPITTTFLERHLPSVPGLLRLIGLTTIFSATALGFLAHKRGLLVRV

Chain of Cyclin-dependent kinase 6 (Homo sapiens) (Q00534 whole entry): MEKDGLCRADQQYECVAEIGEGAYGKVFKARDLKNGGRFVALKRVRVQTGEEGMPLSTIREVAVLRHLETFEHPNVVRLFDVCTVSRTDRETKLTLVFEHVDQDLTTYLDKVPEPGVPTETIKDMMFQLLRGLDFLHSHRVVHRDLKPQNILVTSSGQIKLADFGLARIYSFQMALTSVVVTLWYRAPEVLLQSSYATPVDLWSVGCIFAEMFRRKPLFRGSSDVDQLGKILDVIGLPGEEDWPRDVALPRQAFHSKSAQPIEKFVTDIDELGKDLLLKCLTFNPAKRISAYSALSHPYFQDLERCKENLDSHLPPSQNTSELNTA
Chain of Tyrosine-protein kinase BTK (Homo sapiens) (Q06187 whole entry): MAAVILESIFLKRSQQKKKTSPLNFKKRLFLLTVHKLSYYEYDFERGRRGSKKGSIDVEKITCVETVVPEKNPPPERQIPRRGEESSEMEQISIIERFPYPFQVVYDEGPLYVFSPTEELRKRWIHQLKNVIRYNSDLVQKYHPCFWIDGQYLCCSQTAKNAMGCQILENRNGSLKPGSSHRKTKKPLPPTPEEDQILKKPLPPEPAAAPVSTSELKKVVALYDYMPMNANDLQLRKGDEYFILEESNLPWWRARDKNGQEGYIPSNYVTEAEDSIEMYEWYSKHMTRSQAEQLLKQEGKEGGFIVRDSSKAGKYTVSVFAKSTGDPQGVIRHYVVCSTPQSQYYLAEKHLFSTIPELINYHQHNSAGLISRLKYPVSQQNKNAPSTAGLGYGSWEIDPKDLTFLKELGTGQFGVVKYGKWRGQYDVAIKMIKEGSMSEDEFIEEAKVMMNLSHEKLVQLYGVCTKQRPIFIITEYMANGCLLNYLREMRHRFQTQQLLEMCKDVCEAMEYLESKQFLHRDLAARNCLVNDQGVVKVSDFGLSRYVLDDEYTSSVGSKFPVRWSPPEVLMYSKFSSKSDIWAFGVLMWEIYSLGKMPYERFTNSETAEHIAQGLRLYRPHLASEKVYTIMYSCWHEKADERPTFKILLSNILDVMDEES
Chain of Cyclin-dependent kinase 1 (Homo sapiens) (P06493 whole entry, looked up): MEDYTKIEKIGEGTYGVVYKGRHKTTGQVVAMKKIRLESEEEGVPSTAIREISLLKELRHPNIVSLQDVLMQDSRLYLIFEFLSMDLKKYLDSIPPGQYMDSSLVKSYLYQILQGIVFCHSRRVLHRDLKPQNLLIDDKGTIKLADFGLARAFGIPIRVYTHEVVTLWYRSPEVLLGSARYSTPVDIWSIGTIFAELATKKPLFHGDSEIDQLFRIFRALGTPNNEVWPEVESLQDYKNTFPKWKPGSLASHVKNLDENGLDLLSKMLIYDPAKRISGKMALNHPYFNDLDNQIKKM

Row | pIC50 (PC-3) | pIC50 (B16-F10) | pIC50 (ECa-109 cell line) | pIC50 (MGC-803) | inhibition [1] | inhibition [2] | inhibition [3] | pIC50 [4] | inhibition at 20 µM (MAO-A) | inhibition [5] | inhibition [6] | Ratio IC50 [7] | inhibition at 20 µM (MAO-B) | SMILES
1 | 4.81 | < 4.19 | 4.71 | 4.69 | – | – | – | – | – | – | – | – | – | CCCSc1nc2c(nnn2CCNC(=S)Nc2ccc(OC)cc2)c(=O)[nH]1
2 | 4.63 | 4.85 | < 4.19 | 4.59 | – | – | – | – | – | – | – | – | – | CCCSc1nc2c(nnn2CCNC(=S)Nc2ccccc2Cl)c(=O)[nH]1
3 | 4.59 | < 4.19 | < 4.19 | 4.33 | – | – | – | – | – | – | – | – | – | CCCSc1nc2c(nnn2CCNC(=S)NCc2ccccc2)c(=O)[nH]1
4 | 5.04 | 4.94 | 5.01 | 5.08 | < 10% | 20% | < 10% | 5.01 | 3.9% | Dose-dependent effect | < 10% | 3 | 11.8% | CCCSc1nc2c(nnn2CCNC(=S)Nc2cccc3ccccc23)c(=O)[nH]1
